Experimental data published in PMC5467912, “Asymmetric regulation of quorum-sensing receptors drives autoinducer-specific gene expression programs in Vibrio cholerae” (PLoS Genetics, 2017).
Where “and” joins values, the source holds several entries; their conditions need not be identical. Equal entries are not always repeated. Where two headings read alike, the source gives them in different places.

Key:
CqsS F166L [1] = details: cited from earlier work
qrr4 = type: cell-based
CqsS [2] = target: T1, CqsS (Vibrio cholerae serotype O1, UniProt Q9KM66); type: cell-based; details: Strain WN1102
T1 construct: endogenous in cells; host or cells: V. cholerae WN1102 (ΔcqsA ΔluxQ/pBB1), derived from C6706str2

hapA = type: cell-based; details: ΔcqsA ΔluxS strain, HCD
CqsS C170Y = details: cited from earlier work
WT CqsS [3] = tested on: T2, WT CqsS; type: cell-based; details: Treatment 1uM
T2 construct: made in house; host or cells: E. coli C43 (DE3), pET21b; used as inverted membrane vesicles

CqsS F166L [4] = experiment: CqsS-dependent repression of qrr4-gfp, CqsS F166L (Fig 7C); type: cell-based, Vibrio cholerae
[5] = tested on: QS-controlled luxCDABE operon; type: cell-based
CqsS D618N = tested on: T3, CqsS D618N; experiment: CqsS D618N autophosphorylation in inverted membrane vesicles, 32P (Fig 7A); type: biochemical, Vibrio cholerae
T3 construct: made in house; host or cells: E. coli C43 (DE3), pET21b; used as inverted membrane vesicles

WT CqsS [6] = tested on: T2, WT CqsS; type: biochemical; details: for % Total Phosphorylation: CqsS WT
CqsS [7] = type: cell-based; details: for CqsS Dimers: LuxS-CqsA-, AI-2 1 μM, CAI-1 5 μM, single replicates
[8] = ΔcqsA strain carrying luciferase

For CCCCCCCCCC(=O)[C@@H](O)CC [CAI-1, (S)-3-hydroxytridecan-4-one], the “response of CqsS variant to CAI-1” value (CqsS F166L [1]) is given as “do not respond”, the “RLU, average per biological replicate (Totals)” value (qrr4; LuxS-CqsA- strain + autoinducer, Rep 1-3) is given as 2.55E+08 RLU and 2.82E+08 RLU and 3.63E+08 RLU and the “reduction of qrr4-luxCDABE expression” value (qrr4; saturating autoinducer, ΔcqsA ΔluxS mutant) is given as 20 fold. For the same compound, the RLU (CqsS [2]; CAI-1 0.0119209 nM) was 2.86E+07 RLU, the RLU (CqsS [2]; CAI-1 0.0476837 nM) was 2.99E+07 RLU and the RLU (CqsS [2]; CAI-1 0.190735 nM) was 2.91E+07 RLU. The RLU (CqsS [2]; CAI-1 0.762939 nM) was 2.65E+07 RLU, the RLU (CqsS [2]; CAI-1 3.05176 nM) was 3.77E+07 RLU and the RLU (CqsS [2]; CAI-1 12.207 nM) was 1.29E+08 RLU. The RLU (CqsS [2]; CAI-1 48.8281 nM) was 1.08E+09 RLU, the RLU (CqsS [2]; CAI-1 195.312 nM) was 1.14E+10 RLU and the RLU (CqsS [2]; CAI-1 781.25 nM) was 7.27E+10 RLU. For the same compound, the RLU (CqsS [2]; CAI-1 3125 nM) was 1.12E+11 RLU, the RLU (CqsS [2]; CAI-1 12500 nM) was 1.47E+11 RLU and the RLU (CqsS [2]; CAI-1 50000 nM) was 1.61E+11 RLU. For the same compound, the “increase in hapA expression” value (hapA) was “over 50 fold”, the “response of CqsS variant to CAI-1” value (CqsS C170Y) was “do not respond” and the Qrr4-GFP/OD600 (WT CqsS [3]) was 1736969 and 1605333 and 1622571. For the same compound, the Qrr4-GFP/OD600 (CqsS F166L [4]; Treatment 1uM, CqsS mutant F166L) was 7778886 and 7289924 and 6896372, the “response (Qrr4-GFP production)” value (CqsS F166L [4]; compounds at 1 μM) was “nearly impervious” and the Light production ([5]; 5nM CAI-1, OD600 0.005) was 81418.9 RLU and 88175.7 RLU. For the same compound, the Light production ([5]; 5nM CAI-1, OD600 0.0328) was 3079268 RLU and 3871951 RLU, the Light production ([5]; 5nM CAI-1, OD600 0.1753) was 587564 RLU and the Light production ([5]; 5nM CAI-1, OD600 0.3442) was 310866 RLU and 554910 RLU. For the same compound, the Light production ([5]; 5nM CAI-1, OD600 0.801) was 179775 RLU and 309613 RLU, the Light production ([5]; 5nM CAI-1, OD600 1.26) was 81746 RLU and 99206.4 RLU and the Light production ([5]; 5nM CAI-1, OD600 1.834) was 45747000 RLU and 48964010 RLU. The Light production ([5]; 5nM CAI-1, OD600 2.816) was 21306820 RLU and 22194600 RLU, the Light production ([5]; 5nM CAI-1, OD600 3.828) was 7523511 RLU and 7967607 RLU and the Light production ([5]; 10nM CAI-1, OD600 0.005) was 81418.9 RLU and 88175.7 RLU. For the same compound, the Light production ([5]; 10nM CAI-1, OD600 0.0309) was 3915858 RLU and 6084143 RLU, the Light production ([5]; 10nM CAI-1, OD600 0.3229) was 637968 RLU and 656550 RLU and the Light production ([5]; 10nM CAI-1, OD600 1.126) was 88099.5 RLU and 91474.2 RLU. The Light production ([5]; 10nM CAI-1, OD600 1.799) was 63924400 RLU and 62812670 RLU, the Light production ([5]; 10nM CAI-1, OD600 3.014) was 33012610 RLU and 33842070 RLU and the Light production ([5]; 10nM CAI-1, OD600 3.657) was 10363690 RLU and 11730930 RLU. The Light production ([5]; 50nM CAI-1, OD600 0.005) was 88175.7 RLU and 81418.9 RLU, the Light production ([5]; 50nM CAI-1, OD600 0.17) was 729000 RLU and 688000 RLU and the Light production ([5]; 50nM CAI-1, OD600 1.08) was 697000 RLU. For the same compound, the Light production ([5]; 50nM CAI-1, OD600 1.1) was 90900 RLU and 113000 RLU, the Light production ([5]; 50nM CAI-1, OD600 1.96) was 526000000 RLU and 531000000 RLU and the Light production ([5]; 50nM CAI-1, OD600 2.94) was 619000000 RLU and 599000000 RLU. The Light production ([5]; 50nM CAI-1, OD600 3.55) was 346000000 RLU and 321000000 RLU, the Light production ([5]; 100nM CAI-1, OD600 0.005) was 81418.9 RLU and 88175.7 RLU and the Light production ([5]; 100nM CAI-1, OD600 0.0305) was 3670000 RLU and 6790000 RLU. The Light production ([5]; 100nM CAI-1, OD600 0.1651) was 654000 RLU and 1050000 RLU, the Light production ([5]; 100nM CAI-1, OD600 0.3167) was 332000 RLU and 388000 RLU and the Light production ([5]; 100nM CAI-1, OD600 0.721) was 196000 RLU and 241000 RLU. The Light production ([5]; 100nM CAI-1, OD600 1.101) was 2280000 RLU, the Light production ([5]; 100nM CAI-1, OD600 2.679) was 3170000000 RLU and the Light production ([5]; 100nM CAI-1, OD600 3.677) was 1830000000 RLU and 1870000000 RLU. For the same compound, the Light production ([5]; 200nM CAI-1, OD600 0.005) was 81418.9 RLU and 88175.7 RLU, the Light production ([5]; 200nM CAI-1, OD600 0.0621) was 2130000 RLU and 2790000 RLU and the Light production ([5]; 200nM CAI-1, OD600 0.3026) was 568000 RLU and 806000 RLU. The Light production ([5]; 200nM CAI-1, OD600 0.5074) was 946000 RLU and 1180000 RLU, the Light production ([5]; 200nM CAI-1, OD600 0.5715) was 2260000 RLU and 2870000 RLU and the Light production ([5]; 200nM CAI-1, OD600 1.099) was 27300000 RLU and 26900000 RLU. For the same compound, the Light production ([5]; 200nM CAI-1, OD600 1.844) was 5910000000 RLU, the Light production ([5]; 200nM CAI-1, OD600 2.341) was 8370000000 RLU and 9230000000 RLU and the Light production ([5]; 200nM CAI-1, OD600 3.352) was 11800000000 RLU and 12600000000 RLU. The Light production ([5]; 200nM CAI-1, OD600 4.26) was 7350000000 RLU and 7860000000 RLU, the Light production ([5]; 400nM CAI-1, OD600 0.005) was 81418.9 RLU and 88175.7 RLU and the Light production ([5]; 400nM CAI-1, OD600 0.0614) was 1510000 RLU and 1840000 RLU. For the same compound, the Light production ([5]; 400nM CAI-1, OD600 0.3014) was 358000 RLU and 392000 RLU, the Light production ([5]; 400nM CAI-1, OD600 0.5621) was 3290000 RLU and 3630000 RLU and the Light production ([5]; 400nM CAI-1, OD600 1.037) was 74300000 RLU and 84000000 RLU. For the same compound, the Light production ([5]; 400nM CAI-1, OD600 1.532) was 10100000000 RLU, the Light production ([5]; 400nM CAI-1, OD600 2) was 31900000000 RLU and 31800000000 RLU and the Light production ([5]; 400nM CAI-1, OD600 3.04) was 22900000000 RLU and 24900000000 RLU. For the same compound, the Light production ([5]; 400nM CAI-1, OD600 3.35) was 22600000000 RLU and 24400000000 RLU, the “CAI-1 concentration at which induction of bioluminescence occurred” value [5, 8] was 50 nM and the “CAI-1 concentrations that failed to activate a QS response” value [5, 8] was “below 50 nM”. For the same compound, the “CAI-1 concentrations that fully induced QS” value [5, 8] was “above 200 nM”, the “% Total Phosphorylation” value (CqsS D618N; agonist 0.32 uM) was 95.2512% and 79.8407% and 88.8244% and 85.3997% and 90.9887% and the “% Total Phosphorylation” value (CqsS D618N; agonist 0.64 uM) was 113.145% and 87.5268% and 103.834% and 64.446% and 85.0733% and 67.8245%. The “% Total Phosphorylation” value (CqsS D618N; agonist 1.28 uM) was 54.1919% and 72.6606% and 66.4662% and 63.8968% and 70.5235% and 55.5883%, the “% Total Phosphorylation” value (CqsS D618N; agonist 6.4 uM) was 11.8696% and 10.1556% and 13.3867% and 14.118% and 13.0644% and 14.5467% and the “% Total Phosphorylation” value (CqsS D618N; agonist 8 uM) was 8.344% and 11.4086% and 9.0715% and 10.6327% and 12.5012% and 11.7307%. For the same compound, the “% Total Phosphorylation” value (CqsS D618N; agonist 10 uM) was 12.437% and 6.165% and 12.0698% and 9.199% and 10.7397% and 9.533%, the “% Total Phosphorylation” value (CqsS D618N; agonist 15 uM) was 6.329% and 4.395% and 5.101% and 4.035% and 5.504% and 5.125% and the “% Total Phosphorylation” value (WT CqsS [6]; Agonist 0.01 uM) was 102.493% and 101.697% and 101.306%. The “% Total Phosphorylation” value (WT CqsS [6]; Agonist 0.1 uM) was 89.3767% and 102.409% and 93.98%, the “% Total Phosphorylation” value (WT CqsS [6]; Agonist 0.5 uM) was 97.7615% and 100.304% and 88.309% and 81.2302% and 104.248% and 84.8997% and 78.17% and 83.6501% and the “% Total Phosphorylation” value (WT CqsS [6]; Agonist 1 uM) was 89.5575% and 94.3418% and 94.4031% and 65.5157% and 64.6244%. The “% Total Phosphorylation” value (WT CqsS [6]; Agonist 2.5 uM) was 63.4493% and 51.2966% and 78.14% and 56.8331% and 55.38%, the “% Total Phosphorylation” value (WT CqsS [6]; Agonist 5 uM) was 72.2411% and 75.0851% and 56.1286% and 43.0708% and 37.87% and 49.5683% and the “% Total Phosphorylation” value (WT CqsS [6]; Agonist 75 uM) was 26.5628% and 23.1908% and 29.77% and 22.6184%. The “% Total Phosphorylation” value (WT CqsS [6]; Agonist 500 uM) was 13.8148% and 19.6183% and 26.8103% and 17.4064%, the “% Total Phosphorylation” value (WT CqsS [6]; Agonist 1000 uM) was 22.144% and 17.5686% and the “inhibition of WT CqsS autophosphorylation” value (WT CqsS [6]; saturating concentration (Fig 7B)) was 80%. For the same compound, the “CqsS Dimers” value (CqsS [7]; HCD (OD600 = 2.0)) was 114.596 and 64.6161 and 71.1979 and 202.196 and 256.645 and 84.2562 and 79.0603 and 97.3422, the “CqsS Dimers” value (CqsS [7]; LCD (OD600 = 0.2)) was 74.4347 and 10.9291 and 11.9686 and 59.9755 and 52.7962 and 18.8946 and 26.4401 and 52.893 and the CqsS protein levels (CqsS [7]; ΔcqsA ΔluxS mutant, LCD and HCD) was “increased CqsS protein levels to nearly that present in the WT”.
